According to patent publication US20200339537A1, “NOVEL COMPOUND AS INHIBITOR AGAINST BINDING OF PF34 PROTEIN TO NEDD4-1 PROTEIN AND USE THEREOF” (ENHANCEDBIO INC., priority 2017, published 2020):

How the values were obtained:
[1] = target: T1, binding between p34 protein and NEDD4-1 protein (Homo sapiens, UniProt P46934+Q9UHV2); experiment: Inhibitory activity on binding between p34 and NEDD4-1, FRET (HTRF) assay; conditions: 1×PBS pH 7.4, 0.1% BSA, 2% DMSO, 384-well; for inhibition at 10 µM: pH 7.4, compound 10 μM; for FRET result (Inhibition % @10 μM): compound 10 μM
T1 construct: FLAG or 6xHis (known only from the detection antibodies)
T1 sequence (P46934 1-1319): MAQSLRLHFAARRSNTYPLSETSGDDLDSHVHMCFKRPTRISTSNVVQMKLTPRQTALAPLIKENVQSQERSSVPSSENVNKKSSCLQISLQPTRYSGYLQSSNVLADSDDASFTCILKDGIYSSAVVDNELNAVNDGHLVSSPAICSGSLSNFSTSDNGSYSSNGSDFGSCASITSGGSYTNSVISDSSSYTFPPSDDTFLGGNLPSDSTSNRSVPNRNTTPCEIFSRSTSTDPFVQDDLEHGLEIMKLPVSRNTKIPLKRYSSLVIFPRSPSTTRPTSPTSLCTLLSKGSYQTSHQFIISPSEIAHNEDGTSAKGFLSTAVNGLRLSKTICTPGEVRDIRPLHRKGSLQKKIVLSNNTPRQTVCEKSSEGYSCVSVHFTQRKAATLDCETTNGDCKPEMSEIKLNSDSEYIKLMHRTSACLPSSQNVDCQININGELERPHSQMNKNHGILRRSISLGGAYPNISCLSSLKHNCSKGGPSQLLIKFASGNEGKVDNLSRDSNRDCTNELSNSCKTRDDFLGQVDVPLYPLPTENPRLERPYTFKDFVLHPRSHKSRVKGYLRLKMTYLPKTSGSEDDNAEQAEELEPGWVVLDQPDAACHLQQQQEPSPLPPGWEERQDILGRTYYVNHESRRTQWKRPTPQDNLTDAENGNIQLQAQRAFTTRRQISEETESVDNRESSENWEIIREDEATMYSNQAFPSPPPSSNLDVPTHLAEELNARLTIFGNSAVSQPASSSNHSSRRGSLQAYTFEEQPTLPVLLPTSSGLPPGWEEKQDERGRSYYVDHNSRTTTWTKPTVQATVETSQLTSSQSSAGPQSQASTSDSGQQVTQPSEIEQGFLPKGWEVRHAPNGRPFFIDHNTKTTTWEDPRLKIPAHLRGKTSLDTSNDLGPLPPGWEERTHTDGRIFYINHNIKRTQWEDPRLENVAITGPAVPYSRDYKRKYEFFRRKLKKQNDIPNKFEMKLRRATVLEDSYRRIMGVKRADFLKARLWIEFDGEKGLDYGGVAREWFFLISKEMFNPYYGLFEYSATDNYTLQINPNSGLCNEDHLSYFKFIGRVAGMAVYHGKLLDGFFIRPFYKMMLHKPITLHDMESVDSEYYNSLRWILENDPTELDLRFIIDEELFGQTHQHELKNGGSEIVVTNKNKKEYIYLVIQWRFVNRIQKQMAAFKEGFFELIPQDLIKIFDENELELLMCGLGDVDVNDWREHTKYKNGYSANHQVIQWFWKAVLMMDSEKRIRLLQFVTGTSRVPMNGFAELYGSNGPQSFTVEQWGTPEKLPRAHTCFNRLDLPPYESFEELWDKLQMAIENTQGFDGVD
T1 sequence (Q9UHV2 1-236): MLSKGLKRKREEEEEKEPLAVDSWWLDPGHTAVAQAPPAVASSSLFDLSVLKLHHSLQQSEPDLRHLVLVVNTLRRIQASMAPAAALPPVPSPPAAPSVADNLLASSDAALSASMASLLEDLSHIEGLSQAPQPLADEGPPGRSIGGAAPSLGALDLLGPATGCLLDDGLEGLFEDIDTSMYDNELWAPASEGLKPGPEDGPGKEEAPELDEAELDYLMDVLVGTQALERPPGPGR
Description: Inhibitory activity of the compound on binding between p34 and NEDD4-1 was evaluated using p34 protein and NEDD4-1 protein based on the HTRF technology developed by Cisbio. In this assay, a fluorescence resonance energy transfer (FRET) signal was measured in the presence of terbium-labeled anti-FLAG antibody and d2-labeled anti-6XHis antibody. Experiments were performed in 384-well plates under a condition of 1×PBS pH 7.4, 0.1% BSA, and 2% DMSO. A background signal was measured in the absence of the p34-NEDD4-1 proteins, and a non-inhibiting signal was measured with addition of only a solvent (2% DMSO). […] Subsequently, inhibitory activity of the compound on p34-NEDD4-1 was calculated in %.

[2] = test system: PTEN (lipid phosphatase activity) in human colon cancer cell line SW620; experiment: cells; format: cell-based; conditions: compound 5 μM, PTEN immunoprecipitation, diC8-PIP3 substrate, Biomol Green; for fold induction at 5 µM: Homo sapiens, SW-620, 48 h, read-out: PTEN activity (relative fold @5 μM)

For Cc1ccc2nc(C(C)NC(=O)C3CCN(Cc4c[nH]c5ccc(Cl)cc45)CC3)[nH]c2c1 (stereo not shown) [Example 2], the inhibition at 10 µM [1] was 42.4%.

Cc1cc2nc(CNC(=O)C3CCN(Cc4c[nH]c5ccc(Cl)cc45)CC3)[nH]c2cc1C [Example 3] was tested, and the fold induction at 5 µM [2] was 1.5.

O=C(NCc1nc2cc(Cl)ccc2[nH]1)C1CCN(Cc2c[nH]c3ccc(Cl)cc23)CC1 [Example 4] showed a fold induction at 5 µM [2] of 1.8 and an inhibition at 10 µM [1] of 30.6%.

CC(NC(=O)C1CCN(Cc2c[nH]c3ccc(Cl)cc23)CC1)c1nc2ccccc2[nH]1 (stereo not shown) [Example 5] showed a fold induction at 5 µM [2] of 1.5.

In the case of O=C(NCc1nc2cc(F)ccc2[nH]1)C1CCN(Cc2c[nH]c3ccc(Cl)cc23)CC1 [Example 6], the fold induction at 5 µM [2] was 3 and the inhibition at 10 µM [1] was 36.6%.

With CCC(NC(=O)C1CCN(Cc2c[nH]c3ccc(Cl)cc23)CC1)c1nc2ccccc2[nH]1 (stereo not shown) [Example 7] the inhibition at 10 µM [1] was 59%.

With O=C(NCc1nc2ccccc2[nH]1)C1CCN(Cc2c[nH]c3ccc(C(F)(F)F)cc23)CC1 [Example 8] the “FRET result (Inhibition % @10 μM)” value [1] was 49.4%.

With O=C(NCc1ncc[nH]1)C1CCN(Cc2c[nH]c3ccc(Cl)cc23)CC1 [Example 9] the inhibition at 10 µM [1] was 58.4%.

In the case of O=C(NCc1cnccn1)C1CCN(Cc2c[nH]c3ccc(Cl)cc23)CC1 [Example 10], the inhibition at 10 µM [1] was 39%.

Work on O=C(NCc1nccs1)C1CCN(Cc2c[nH]c3ccc(Cl)cc23)CC1 [Example 11] yielded an inhibition at 10 µM [1] of 39.1%.

In the case of O=C(NCc1nccs1)C1CCN(Cc2ccc3[nH]ccc3c2)CC1 [Example 12], the inhibition at 10 µM [1] was 39.2%.

Work on CC(NC(=O)C1CCN(Cc2ccc3[nH]ccc3c2)CC1)c1nc2ccccc2[nH]1 (stereo not shown) [Example 13] yielded a fold induction at 5 µM [2] of 3.2 and an inhibition at 10 µM [1] of 38.9%.

O=C(NCc1nc2ccc(F)cc2[nH]1)C1CCN(Cc2ccc3[nH]ccc3c2)CC1 [Example 14] showed a fold induction at 5 µM [2] of 3.8 and an inhibition at 10 µM [1] of 44.1%.

Compound O=C(NCc1ncc[nH]1)C1CCN(Cc2ccc3[nH]ccc3c2)CC1 [Example 15] has an inhibition at 10 µM [1] of 60.4%.

In the case of O=C(NCc1nc2cc(F)c(F)cc2[nH]1)C1CCN(Cc2ccc3[nH]ccc3c2)CC1 [Example 16], the fold induction at 5 µM [2] was 1.5 and the inhibition at 10 µM [1] was 47.2%.

Compound O=C(C1CCN(Cc2ccc3[nH]ccc3c2)CC1)N1CCn2cc(C(F)(F)F)nc2C1 [Example 17] has a fold induction at 5 µM [2] of 2.2 and an inhibition at 10 µM [1] of 48%.

Compound O=C(NCc1nc2ccccc2o1)C1CCN(Cc2ccc3[nH]ccc3c2)CC1 [Example 18] has a fold induction at 5 µM [2] of 2 and an inhibition at 10 µM [1] of 30%.

O=C(NCc1nccs1)C1CCN(Cc2ccc3[nH]ccc3c2)CC1 [Example 19] was tested, and the fold induction at 5 µM [2] was 2.5 and the “FRET result (Inhibition % @10 μM)” value [1] was 32.1%.

Cc1ccc2nc(CNC(=O)C3CCN(Cc4ccc5[nH]ccc5c4)CC3)[nH]c2c1 [Example 20] was tested, and the fold induction at 5 µM [2] was 1.9 and the inhibition at 10 µM [1] was 51.5%.

For O=C(NC(Cc1ccccc1)c1nc2ccccc2[nH]1)C1CCN(Cc2ccc3[nH]ccc3c2)CC1 (stereo not shown) [Example 21], the inhibition at 10 µM [1] was 56.6%.

O=C(NCc1nc2ccccc2[nH]1)C1CCN(Cc2c[nH]cn2)CC1 [Example 22] gave an inhibition at 10 µM [1] of 48.1%.

Work on O=C(NCc1nc2ccccc2[nH]1)C1CCN(Cc2ccc3[nH]ccc3c2)CC1 [Example 23] yielded an inhibition at 10 µM [1] of 38.2%.

CCC(NC(=O)C1CCN(Cc2ccc3[nH]ccc3c2)CC1)c1nc2ccccc2[nH]1 (stereo not shown) [Example 24] showed an inhibition at 10 µM [1] of 53%.

O=C(NCc1cnccn1)C1CCN(Cc2ccc3[nH]ccc3c2)CC1 [Example 26] showed an inhibition at 10 µM [1] of 42%.

For Cn1c(CNC(=O)C2CCN(Cc3ccc4[nH]ccc4c3)CC2)nc2ccccc21 [Example 27], the fold induction at 5 µM [2] was 1.8.

O=C(NCc1nccs1)C1CCN(C(=O)c2ccc3[nH]ccc3c2)CC1 [Example 28] gave an inhibition at 10 µM [1] of 34.5%.

Cc1ccc2[nH]c(C(C)NC(=O)C3CCN(Cc4c[nH]c5ccc(C(F)(F)F)cc45)CC3)nc2c1 (stereo not shown) [Example 29] showed a fold induction at 5 µM [2] of 2.2 and an inhibition at 10 µM [1] of 59.1%.

With O=C(C1CCN(Cc2c[nH]c3ccc(C(F)(F)F)cc23)CC1)N1CCn2cc(C(F)(F)F)nc2C1 [Example 30] the fold induction at 5 µM [2] was 1.5 and the inhibition at 10 µM [1] was 59.1%.

With O=C(NCc1cncs1)C1CN(Cc2c[nH]c3ccc(C(F)(F)F)cc23)C1 [Example 36] the fold induction at 5 µM [2] was 1.7.

For O=C(NCc1cnccn1)C1CCN(Cc2c[nH]c3ccc(C(F)(F)F)cc23)CC1 [Example 38], the inhibition at 10 µM [1] was 36.6%.

Cn1c(CNC(=O)C2CCN(Cc3c[nH]c4ccc(C(F)(F)F)cc34)CC2)nc2ccccc21 [Example 40] was tested, and the inhibition at 10 µM [1] was 42.8%.

O=C(NCc1nc2ccccc2[nH]1)C1CCN(Cc2c[nH]c3ccc(C(F)(F)F)cc23)CC1 [Example 41] was tested, and the inhibition at 10 µM [1] was 42.8%.

Cn1c(CNC(=O)C2CCN(Cc3c[nH]c4ccccc34)CC2)nc2ccccc21 [Example 46] was tested, and the inhibition at 10 µM [1] was 42.9%.

O=C(NCc1nc2ccccc2[nH]1)C1CCN(Cc2c[nH]c3ccc(F)cc23)CC1 [Example 47] showed an inhibition at 10 µM [1] of 30.5%.

O=C(NCc1nc2cc(F)c(F)cc2[nH]1)C1CCN(Cc2c[nH]c3ccc(F)cc23)CC1 [Example 48] showed a fold induction at 5 µM [2] of 1.6.

In the case of CC(NC(=O)C1CCN(Cc2c[nH]c3ccccc23)CC1)c1nc2ccccc2[nH]1 (stereo not shown) [Example 49], the fold induction at 5 µM [2] was 1.9.

Work on CC(NC(=O)C1CCN(Cc2c[nH]c3ccc(F)cc23)CC1)c1nc2ccccc2[nH]1 (stereo not shown) [Example 50] yielded a fold induction at 5 µM [2] of 2.6.

Work on Cn1cc(CN2CCC(C(=O)NCc3nc4ccccc4[nH]3)CC2)c2cc(F)ccc21 [Example 51] yielded an inhibition at 10 µM [1] of 56.2%.

For CN(Cc1nc2ccccc2[nH]1)C(=O)C1CCN(Cc2c[nH]c3ccccc23)CC1 [Example 52], the inhibition at 10 µM [1] was 32.4%.

With O=C(NCc1nc2cc(F)c(F)cc2[nH]1)C1CCN(Cc2c[nH]c3ccccc23)CC1 [Example 53] the fold induction at 5 µM [2] was 1.8.

In the case of Cc1ccc2nc(C(C)NC(=O)C3CCN(Cc4c[nH]c5ccccc45)CC3)[nH]c2c1 (stereo not shown) [Example 56], the inhibition at 10 µM [1] was 56.2%.

Compound Cn1cc(CN2CCC(C(=O)NCc3nc4ccccc4[nH]3)CC2)c2ccccc21 [Example 59] has a fold induction at 5 µM [2] of 2.

Compound O=C(NCc1nc2ccccc2[nH]1)C1CCN(Cc2c[nH]c3cc(F)c(F)cc23)CC1 [Example 60] has an inhibition at 10 µM [1] of 38.4%.

Cn1c(CNC(=O)N2CCN(Cc3c[nH]c4ccc(Cl)cc34)CC2)nc2ccccc21 [Example 63] was tested, and the inhibition at 10 µM [1] was 52.3%.

CC(NC(=O)N1CCN(Cc2c[nH]c3ccc(Cl)cc23)CC1)c1nc2ccccc2[nH]1 (stereo not shown) [Example 65] was tested, and the inhibition at 10 µM [1] was 53.1%.

CN(Cc1nc2ccccc2n1C)C(=O)N1CCN(Cc2c[nH]c3ccc(Cl)cc23)CC1 [Example 69] was tested, and the fold induction at 5 µM [2] was 1.6.

CN(Cc1nc2ccccc2n1C)C(=O)N1CCN(Cc2c[nH]c3ccc(Cl)cc23)CC1 [Example 70] was tested, and the “PTEN activity (relative fold @5 μM)” value ([2]; 48 hours) was 2.1 fold.

Work on O=C(NCc1nc2ccccc2[nH]1)N1CCN(Cc2c[nH]c3ccc(Cl)cc23)CC1 [Example 75] yielded an inhibition at 10 µM [1] of 52.4%.

For O=C(NCc1nccs1)N1CCN(Cc2c[nH]c3ccc(Cl)cc23)CC1 [Example 76], the fold induction at 5 µM [2] was 1.7.

Work on Cc1[nH]c2ccc(CN3CCN(C(=O)NCc4nccs4)CC3)cc2c1C [Example 88] yielded a fold induction at 5 µM [2] of 2.2.
